The record followed here is BindingDB's records for patent US11518779 (Victoria Link, 2022).

The target in the experiment is DNA (cytosine-5)-methyltransferase 1 (Homo sapiens, UniProt P26358). Put plainly: DNMT1 Inhibition Assay. Here is the method: The DNMT1 assays were carried to determine the IC50 with transition state analogs. The reaction (100 μL) containing 50 mM Tris-HCl pH 8.0, 100 mM KCl, 50 ug/mL BSA, 2 mM DTT, 1 μM freshly prepared [Me-3H]-SAM, 1 μM 26 bp hemimethylated DNA substrate and varying concentrations of each inhibitor ([…]), incubated at 37° C. with 100 nM DNMT1. The reaction fractions (50 μL) were taken at 2 hours. The methylated DNA was purified by using Micro Bio-spin P-30 columns (Bio-Rad). Purified samples were mixed with 10 mL of scintillation liquid (PerkinElmer), and counted for radioactivity in a Tricarb 2910 TR scintillation counter (PerkinElmer). The values obtained in the absence of DNMT1 in the reaction were used as controls. The assay data were analyzed using GraphPad Prism for IC50 calculations.
Sequence of DNA (cytosine-5)-methyltransferase 1 (P26358 whole entry): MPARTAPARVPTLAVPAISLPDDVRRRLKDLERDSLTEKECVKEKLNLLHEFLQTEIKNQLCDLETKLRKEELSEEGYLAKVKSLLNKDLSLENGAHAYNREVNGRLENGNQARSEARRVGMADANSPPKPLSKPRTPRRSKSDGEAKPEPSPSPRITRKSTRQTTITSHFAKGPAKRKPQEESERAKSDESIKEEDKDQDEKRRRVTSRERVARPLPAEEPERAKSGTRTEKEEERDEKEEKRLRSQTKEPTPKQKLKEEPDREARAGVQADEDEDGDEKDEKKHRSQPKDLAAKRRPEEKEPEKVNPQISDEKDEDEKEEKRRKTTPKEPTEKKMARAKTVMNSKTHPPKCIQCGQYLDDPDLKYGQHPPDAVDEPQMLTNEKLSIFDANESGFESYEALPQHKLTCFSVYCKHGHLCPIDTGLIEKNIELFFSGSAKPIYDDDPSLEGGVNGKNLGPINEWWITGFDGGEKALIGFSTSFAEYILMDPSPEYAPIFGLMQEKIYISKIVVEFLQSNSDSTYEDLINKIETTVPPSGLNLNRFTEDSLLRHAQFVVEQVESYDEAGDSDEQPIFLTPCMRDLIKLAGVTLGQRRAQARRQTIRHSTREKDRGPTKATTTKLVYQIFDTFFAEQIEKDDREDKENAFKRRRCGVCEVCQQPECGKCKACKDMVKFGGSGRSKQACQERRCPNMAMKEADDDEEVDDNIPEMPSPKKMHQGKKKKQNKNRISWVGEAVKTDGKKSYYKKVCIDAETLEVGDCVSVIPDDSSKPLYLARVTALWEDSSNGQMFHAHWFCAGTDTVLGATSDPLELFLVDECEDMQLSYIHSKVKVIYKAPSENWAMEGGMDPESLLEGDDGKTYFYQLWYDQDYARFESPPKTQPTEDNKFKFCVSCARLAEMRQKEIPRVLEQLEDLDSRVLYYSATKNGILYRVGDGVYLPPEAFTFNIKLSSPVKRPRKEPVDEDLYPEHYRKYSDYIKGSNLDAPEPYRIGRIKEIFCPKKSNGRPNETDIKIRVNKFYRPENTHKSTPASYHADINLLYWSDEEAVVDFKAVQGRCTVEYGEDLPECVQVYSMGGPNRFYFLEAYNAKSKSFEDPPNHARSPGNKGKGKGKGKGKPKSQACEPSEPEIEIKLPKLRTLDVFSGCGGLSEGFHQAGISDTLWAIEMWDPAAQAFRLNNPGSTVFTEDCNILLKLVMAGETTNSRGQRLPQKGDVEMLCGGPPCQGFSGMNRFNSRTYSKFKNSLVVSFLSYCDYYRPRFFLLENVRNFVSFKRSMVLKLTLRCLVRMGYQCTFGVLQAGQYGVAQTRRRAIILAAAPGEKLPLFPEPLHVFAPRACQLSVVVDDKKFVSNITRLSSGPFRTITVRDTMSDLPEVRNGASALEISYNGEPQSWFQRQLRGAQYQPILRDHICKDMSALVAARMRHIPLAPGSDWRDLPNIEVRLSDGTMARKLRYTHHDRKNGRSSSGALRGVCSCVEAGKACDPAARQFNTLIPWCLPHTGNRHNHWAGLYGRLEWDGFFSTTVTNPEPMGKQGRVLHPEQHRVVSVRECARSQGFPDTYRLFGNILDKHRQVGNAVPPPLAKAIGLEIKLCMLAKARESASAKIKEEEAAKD

As a reminder, the IC50 is the concentration that gives 50% inhibition. Low readings indicate inhibition by little substance, high ones a need for much substance. Take `Nc1nc(=O)n([C@H]2C[C@H](O)[C@@H](CO)O2)cc1CNC[C@H]1O[C@@H](n2cnc3c(N)ncnc32)[C@H](O)[C@@H]1O` [US11518779, Compound 10]: inhibition was half-maximal at 1100 nM (IC50).
In the case of `Nc1nc(=O)n([C@H]2C[C@H](O)[C@@H](CO)O2)cc1CSCCC[C@H]1O[C@@H](n2cnc3c(N)ncnc32)[C@H](O)[C@@H]1O` [US11518779, Compound 21] it was 3600 nM.
